# Laboratory results published in ChEMBL document CHEMBL5034015, “Structure-Based Optimization of 3-Phenyl-N-(2-(3-phenylureido)ethyl)thiophene-2-sulfonamide Derivatives as Selective Mcl-1 Inhibitors” (J Med Chem, 2021).
# Activity calls are given as the source filed them.
# How the values were obtained:
# [1] = test system: RS4-11; assay: Induction of apoptosis in human RS4-11 cells assessed as increase in cleaved caspase 3 expression incubated for 48 hrs by western blot analysis; format: functional, cell-based
# [2] = test system: RS4-11; assay: Induction of apoptosis in human RS4-11 cells assessed as viable cells at 1 uM measured after 24 hrs by Annexin V/7-AAD and MitoSense Red staining based flow cytometry analysis relative to control (reference value: 94.15 %); format: functional; details: read-out: Activity
# [3] = test system: RS4-11; assay: Induction of apoptosis in human RS4-11 cells assessed as early apoptotic cells at 1 uM measured after 24 hrs by Annexin V/7-AAD and MitoSense Red staining based flow cytometry analysis relative to control (reference value: 3.75 %); format: functional
# [4] = test system: RS4-11; assay: Induction of apoptosis in human RS4-11 cells assessed as late apoptotic cells at 1 uM measured after 24 hrs by Annexin V/7-AAD and MitoSense Red staining based flow cytometry analysis relative to control (reference value: 0.99 %); format: functional
# [5] = test system: RS4-11; assay: Induction of apoptosis in human RS4-11 cells assessed as necrotic cells at 1 uM measured after 24 hrs by Annexin V/7-AAD and MitoSense Red staining based flow cytometry analysis relative to control (reference value: 1.11 %); format: functional
# [6] = test system: RS4-11; assay: Induction of apoptosis in human RS4-11 cells assessed as increase in cleaved caspase 9 expression incubated for 48 hrs by western blot analysis; format: functional, cell-based
# [7] = test system: RS4-11; assay: Induction of apoptosis in human RS4-11 cells assessed as increase in cleaved PARP expression incubated for 48 hrs by western blot analysis; format: functional, cell-based
# [8] = target: T1, Induced myeloid leukemia cell differentiation protein Mcl-1 (Homo sapiens, UniProt Q07820); assay: Binding affinity to full length human MCL1 expressed in Escherichia coli BL21 (DE3) at up to 100 uM preincubated for 30 mins followed by 5-FAM-QEDIIIINIARHLAQVGDSMD-RSIPPG tracer addition and measured after 20 mins by fluorescence polarization assay; details: dose microM <=100, time 50.0 min
# [9] = Cytotoxicity against HEK293T cells assessed as cell viability at 20 uM incubated for 48 hrs by CCK8 assay relative to control; format: cell-based, HEK-293T; details: human, read-out: Activity
# [10] = test system: RS4-11; assay: Cytotoxicity against human RS4-11 cells assessed as cell viability at 20 uM incubated for 48 hrs by CCK8 assay relative to control; format: functional; details: read-out: Activity
# [11] = test system: HL-60; assay: Cytotoxicity against human HL-60 cells assessed as cell viability at 20 uM incubated for 48 hrs by CCK8 assay relative to control; format: functional; details: read-out: Activity
# [12] = target: T2, Bcl-2-like protein 1 (Homo sapiens, UniProt Q07817); assay: Binding affinity to full length human Bcl-xl expressed in Escherichia coli BL21 (DE3) at 100 uM preincubated for 30 mins followed by 5-FAM-QEDIIIINIARHLAQVGDSMD-RSIPPG tracer addition and measured after 20 mins by fluorescence polarization assay relative to control; details: time 50.0 min
# [13] = target: T3, Apoptosis regulator Bcl-2 (Homo sapiens, UniProt P10415); assay: Binding affinity to full length human Bcl-2 expressed in Escherichia coli BL21 (DE3) at 100 uM preincubated for 30 mins followed by 5-FAM-QEDIIIINIARHLAQVGDSMD-RSIPPG tracer addition and measured after 20 mins by fluorescence polarization assay relative to control; details: time 50.0 min
# [14] = target: T1, Induced myeloid leukemia cell differentiation protein Mcl-1; assay: Binding affinity to full length human MCL1 expressed in Escherichia coli BL21 (DE3) at 100 uM preincubated for 30 mins followed by 5-FAM-QEDIIIINIARHLAQVGDSMD-RSIPPG tracer addition and measured after 20 mins by fluorescence polarization assay relative to control; details: time 50.0 min
# [15] = test system: HeLa; assay: Cytotoxicity against human HeLa cells assessed as cell viability at 20 uM incubated for 48 hrs by CCK8 assay relative to control; format: functional; details: read-out: Activity
# [16] = test system: HEK-293T; assay: Cytotoxicity against HEK293T cells assessed as reduction in cell viability incubated for 48 hrs by CCK8 assay; details: Homo sapiens
# [17] = target: Induced myeloid leukemia cell differentiation protein Mcl-1/Bcl-2-like protein 11 (Homo sapiens) (UniProt Q07820+O43521); assay: Inhibition of MCL1/Bim interaction in human MCF7 cells assessed as disruption of MCL1/Bim complex at 10 uM measured after 24 hrs by co-immunoprecipitation based western blot analysis relative to control; format: cell-based
# [18] = test system: HeLa; assay: cells; details: Homo sapiens, 48 h
# Description: Cytotoxicity against human HeLa cells assessed as inhibition of cell growth incubated for 48 hrs by CCK8 assay
# [19] = test system: HL-60; assay: cells; details: Homo sapiens, HL-60, 48 h
# Description: Cytotoxicity against human HL-60 cells assessed as inhibition of cell growth incubated for 48 hrs by CCK8 assay
# [20] = test system: RS4-11; assay: cells; details: Homo sapiens, RS4-11, 48 h
# Description: Cytotoxicity against human RS4-11 cells assessed as inhibition of cell growth incubated for 48 hrs by CCK8 assay
# [21] = target: T2, Bcl-2-like protein 1; assay: Binding affinity to full length human Bcl-xl expressed in Escherichia coli BL21 (DE3) at up to 100 uM preincubated for 30 mins followed by 5-FAM-QEDIIIINIARHLAQVGDSMD-RSIPPG tracer addition and measured after 20 mins by fluorescence polarization assay; details: dose microM <=100, time 50.0 min
# [22] = target: T3, Apoptosis regulator Bcl-2; assay: Binding affinity to full length human Bcl-2 expressed in Escherichia coli BL21 (DE3) at up to 100 uM preincubated for 30 mins followed by 5-FAM-QEDIIIINIARHLAQVGDSMD-RSIPPG tracer addition and measured after 20 mins by fluorescence polarization assay; details: dose microM <=100, time 50.0 min
# [23] = test system: RS4-11; assay: Induction of apoptosis in human RS4-11 cells assessed as viable cells at 20 uM measured after 24 hrs by Annexin V/7-AAD and MitoSense Red staining based flow cytometry analysis relative to control (reference value: 94.15 %); format: functional; details: read-out: Activity
# [24] = test system: RS4-11; assay: Induction of apoptosis in human RS4-11 cells assessed as early apoptotic cells at 20 uM measured after 24 hrs by Annexin V/7-AAD and MitoSense Red staining based flow cytometry analysis relative to control (reference value: 3.75 %); format: functional
# [25] = test system: RS4-11; assay: Induction of apoptosis in human RS4-11 cells assessed as late apoptotic cells at 20 uM measured after 24 hrs by Annexin V/7-AAD and MitoSense Red staining based flow cytometry analysis relative to control (reference value: 0.99 %); format: functional
# [26] = test system: RS4-11; assay: Induction of apoptosis in human RS4-11 cells assessed as necrotic cells at 20 uM measured after 24 hrs by Annexin V/7-AAD and MitoSense Red staining based flow cytometry analysis relative to control (reference value: 1.11 %); format: functional
# [27] = test system: MCF7; assay: Inhibition of Bcl-2/Bim interaction in human MCF7 cells assessed as disruption of Bcl-2/Bim complex at 10 uM measured after 24 hrs by co-immunoprecipitation based western blot analysis relative to control; format: cell-based
# T1 sequence (Q07820 whole entry): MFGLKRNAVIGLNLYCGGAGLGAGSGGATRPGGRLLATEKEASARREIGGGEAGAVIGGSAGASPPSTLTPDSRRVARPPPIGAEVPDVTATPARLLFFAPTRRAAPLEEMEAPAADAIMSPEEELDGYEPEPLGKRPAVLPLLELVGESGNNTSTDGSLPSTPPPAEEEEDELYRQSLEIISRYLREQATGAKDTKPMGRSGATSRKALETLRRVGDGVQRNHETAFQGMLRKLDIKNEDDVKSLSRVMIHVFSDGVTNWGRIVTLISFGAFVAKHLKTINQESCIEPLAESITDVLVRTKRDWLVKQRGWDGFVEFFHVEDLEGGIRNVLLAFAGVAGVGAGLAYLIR
# T3 sequence (P10415 whole entry): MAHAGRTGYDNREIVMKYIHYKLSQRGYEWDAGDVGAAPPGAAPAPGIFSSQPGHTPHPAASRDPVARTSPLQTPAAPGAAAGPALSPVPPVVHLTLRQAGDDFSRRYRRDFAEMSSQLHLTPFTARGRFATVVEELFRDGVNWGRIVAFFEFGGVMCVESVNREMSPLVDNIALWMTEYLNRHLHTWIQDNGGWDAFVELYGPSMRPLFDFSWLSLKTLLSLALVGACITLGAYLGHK
# T2 sequence (Q07817 whole entry): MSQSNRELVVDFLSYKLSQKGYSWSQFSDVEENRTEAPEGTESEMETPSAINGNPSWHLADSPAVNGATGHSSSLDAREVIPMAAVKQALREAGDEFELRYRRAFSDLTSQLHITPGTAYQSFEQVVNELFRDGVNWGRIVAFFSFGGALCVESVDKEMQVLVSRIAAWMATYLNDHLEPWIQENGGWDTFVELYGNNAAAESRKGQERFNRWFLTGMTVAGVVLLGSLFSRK
# Chain of Induced myeloid leukemia cell differentiation protein Mcl-1/Bcl-2-like protein 11 (Homo sapiens) (O43521 whole entry, looked up): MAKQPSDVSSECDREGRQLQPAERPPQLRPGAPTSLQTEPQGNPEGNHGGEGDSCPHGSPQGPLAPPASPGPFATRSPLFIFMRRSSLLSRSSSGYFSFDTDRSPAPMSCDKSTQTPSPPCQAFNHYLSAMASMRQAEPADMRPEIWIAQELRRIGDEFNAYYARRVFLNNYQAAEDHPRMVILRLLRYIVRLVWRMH
# Chain of Induced myeloid leukemia cell differentiation protein Mcl-1/Bcl-2-like protein 11 (Homo sapiens) (Q07820 whole entry, looked up): as the sequence (Q07820 whole entry) above
Compound,Activity [1],Activity [6],Activity [7],Activity [8],inhibition [12] [%],inhibition [13] [%],inhibition [14] [%],viability at 20 µM [15] [%],IC50 [16] [µM],IC50 [18] [µM],IC50 [19] [µM],IC50 [20] [µM],Activity [21],Activity [22],other results
CC1(C)CCC(CN2CCN(c3ccc(C(=O)NS(=O)(=O)c4ccc(NCC5CCOCC5)c([N+](=O)[O-])c4)c(Oc4cnc5[nH]ccc5c4)c3)CC2)=C(c2ccc(Cl)cc2)C1 [VENETOCLAX],Dose-Dependent Effect,Dose-Dependent Effect,Dose-Dependent Effect,inactive,–,–,–,–,–,–,–,–,–,–,viability at 1 µM [2]: 0.45%; Activity [3]: 10.75%; Activity [4]: 88.54%; Activity [5]: 0.26%
O=C(Nc1cc(C(F)(F)F)cc(C(F)(F)F)c1)N1CCN(S(=O)(=O)c2sccc2-c2ccccc2Oc2ccc(O)c(O)c2)CC1,–,–,–,–,-8,7,47,20,–,–,–,–,–,–,"viability at 48 h, 20 µM [9]: 29%; viability at 20 µM [10]: 10%; viability at 20 µM [11]: 15%"
COc1ccc(Oc2ccc([N+](=O)[O-])cc2-c2ccsc2S(=O)(=O)N2CCN(C(=S)Nc3ccc(Cl)cc3)CC2)cc1OC,–,–,–,–,37,18,41,–,> 50,> 50,> 50,> 50,–,–,inhibition [17]: 30%
O=[N+]([O-])c1ccc(NC(=S)NCCNS(=O)(=O)c2ccc(-c3ccccc3OCc3cccc(O)c3)s2)cc1,–,–,–,inactive,–,–,–,28,> 20,–,10.8,10.1,inactive,inactive,–
COc1ccc(Oc2ccccc2-c2ccsc2S(=O)(=O)NCCNC(=S)Nc2cc(C(F)(F)F)cc(C(F)(F)F)c2)cc1OC,Dose-Dependent Effect,Dose-Dependent Effect,Dose-Dependent Effect,–,–,–,–,–,6.8,6.4,2.8,3.3,inactive,inactive,viability at 20 µM [23]: 2.6%; Activity [24]: 3.1%; Activity [25]: 93.97%; Activity [26]: 0.26%; inhibition [27]: 20%
